Reference: paper PMC6397271 (Scientific Reports, 2019)
Where “and” joins values, the source holds several entries; their conditions need not be identical. Identical values can stand only once. Like-named read-outs stand apart in the source and are kept apart here.

What was measured:
[1] = test system: intracellular MRSA 12673 strain in HEK293 cells; test: Intracellular antimicrobial (infection) assay; type: cell-based, Staphylococcus aureus
Method: HEK293 (human embryonic kidney) cells were purchased form Cell Line Services (Germany). The cells were cultured in Dulbecco’s Modified Eagle’s (DMEM) medium with 4.5 g/l glucose (Sigma-Aldrich, Germany), supplemented with 10% fetal bovine serum (FBS, Sigma-Aldrich, Germany) and 1% PEN/STREP (Sigma-Aldrich, Germany). Cells were maintained in a 5% CO2 incubator at 37 °C. The original lines were checked for the presence of mycoplasma.
HEK293 cells were seeded at a density of 1.5 × 10^5 cells/well in 24-well plates in an antibiotic-free medium (DMEM + 10% FBS) and were allowed to adhere overnight. Next, the medium was removed and overnight culture of S. aureus strain (12673) suspended in DMEM + 1% FBS (invasive medium) at a ratio of bacteria/cells 25:1 was added. To enable bacterial invasion, the cells were incubated with bacterial suspensions (37 °C, 5% CO2) for 2 h.
After this period of time extracellular bacteria were eliminated by a 30 min incubation with 20 U/ml lysostaphin. […] The lysis of human cells was carried out with 0.2% Trition-X-100 (Sigma-Aldrich, Germany). The obtained cell lysates were serially diluted in PBS and plated on agar plates and CFU/ml was determined.
The results are presented as the percentage of S. aureus intracellular survival after treatment in comparison to that of non-treated cells (control). The assay was performed in triplicates.

[2] = Brain concentration by LC/MS after iv administration; type: in vivo, BALB/c male mice; settings: iv tail vein, 60 mg/kg, 2 hours after administration, brain homogenate supernatant, UHPLC-ESI/MS SIM; Mean ± SD, ten mice; 60 mg/kg
Method: In vivo experiments were performed on BALB/c male mice weighing between 20 and 30 g (the mouse model is widely used for estimation of drug BBB penetration). The animals (obtained from TAZD-CBU) were kept in a 12-hour day and night cycle at room temperature (20–22 °C), humidity 55–56% and fed with a standard diet and water ad libitum for at least 1 week before the experiment. Body temperature and weight were recorded on a regular daily schedule. It is confirmed that all procedures were carried out according to the guidelines outlined by the European Community Council Directive 2010/63/EEC, and they were approved by the local Ethical Committee Resolution 26/2014 (Bydgoszcz, Poland).
The experiments in this section also involved the mouse model described above. […] Similarly to what was stated previously, the mice were sacrificed 2 hours after the administration of the compounds. Their brains were removed immediately from the cranium and weighed. Next, they were homogenized mechanically in the ice and frozen at −80 °C.
Each homogenized mouse brain was centrifuged at 15 000 × g for 10 min. The supernatant was diluted with deionised water (Millipore), filtered (PTFE 0.22 μm filter) and analyzed by UHPLC-ESI/MS with the use of Shimadzu Nexera X2 UHPCL chromatograph and Shimadzu LCMS-2020 mass detector. […]

[3] = test system: S.aureus MRSA hetero-VISA 6347; test: microbe, parasite or virus in culture; type: cell-based, Staphylococcus aureus; settings: Staphylococcus aureus
Method: (§1) To find out MICA(with B) and MICB(with A) a checkerboard assay was carried out in 96-well microtiter plates (each test was performed in triplicates). […] Each well in a 96-well plate was inoculated with 100 µL of bacterial inoculum of 1 × 10^5 CFU/mL. For this purpose only bacterial strains of MRSA (N315, 12673 and 6347) were used. Next, the plates were incubated at 37 °C for 24 h.
(§2) FIC index (FICI) is the sum of FICA and FICB. The interpretation of the calculated FICIs is in accordance to the following principle: FICI ≤ 0.5 synergy; FICI > 0.5 and ≤4 indifference (no interaction); FICI > 4, antagonism.

S.aureus MRSA 12673 = test: microbe, parasite or virus in culture; type: cell-based, Staphylococcus aureus; settings: Staphylococcus aureus, MRSA
Method: as §1, §2

S.aureus MRSA N315 = test: microbe, parasite or virus in culture; type: cell-based, Staphylococcus aureus; settings: Staphylococcus aureus, MRSA
Method: as §1, §2

[4] = 24 h, read-out: MIC Van(with TP10), MICA (with B)

Q: For `CN[C@H](CC(C)C)C(=O)N[C@H]1C(=O)N[C@@H](CC(N)=O)C(=O)N[C@H]2C(=O)N[C@H]3C(=O)N[C@H](C(=O)N[C@H](C(=O)O)c4cc(O)cc(O)c4-c4cc3ccc4O)[C@H](O)c3ccc(c(Cl)c3)Oc3cc2cc(c3O[C@@H]2O[C@H](CO)[C@@H](O)[C@H](O)[C@H]2O[C@H]2C[C@](C)(N)[C@H](O)[C@H](C)O2)Oc2ccc(cc2Cl)[C@H]1O` [Van, vancomycin, reference compound], which “percentage of S. aureus intracellular survival” value ([1]; HEK293 infected 25:1 for 2 h, lysostaphin 20 U/ml 30 min, compound 25 µM for 24 h, CFU/ml of lysates vs non-treated cells, triplicates, Fig. 2) is on record?
A: The value was ~95%.

Q: And the “intracellular MRSA killed (bacterial killing rate)” value ([1]; MRSA-infected HEK293 cells, 25 µM, 24 h)?
A: Its value is 5%.

Q: What about the “Brain concentrations of Van” value [2] of the same compound?
A: Its value is 11 nM and 11 ± 2 nM.

Q: What about the MIC [3, 4] of the same compound?
A: The MIC was 1.6 µM.

Q: What about the MIC ([3]; read-out: MIC Van (A), MICA) of the same compound?
A: Its MIC is 4.1 µM.

Q: And the MIC (S.aureus MRSA 12673; [4])?
A: The MIC was 1.6 µM.

Q: What about the MIC (S.aureus MRSA 12673; read-out: MIC Van (A), MICA) of the same compound?
A: Its MIC is 4.1 µM.

Q: And the MIC (S.aureus MRSA N315; [4])?
A: The MIC was 1.6 µM.

Q: What about the MIC (S.aureus MRSA N315; read-out: MIC Van (A), MICA) of the same compound?
A: The MIC was 2 µM.
